From patent US20250129021A1, “SMALL MOLECULE PROTEIN SYNTHESIS MODULATORS” (Interdict Bio, Inc., priority 2023, published 2025)
Read-outs that look alike come from different tables or passages of the source.

Columns and labels:
Assay type in all cases: biochemical
MCL-1 = assay: In vitro transcription-translation (IVTT) assay, MCL-1 reporter; conditions: HeLa S3 lysate, sfGFP/mCherry ratio
Summary of the method: (§1)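 Reporter: mCherry, P2A, then 3×FLAG-target peptide-sfGFP fusion, IRES-initiated; HeLa S3 lysate IVTT; cpd dilutions 30 μM−0.1 μM half-log in 100% DMSO (dilution-plate conc); DNA added last; 2 h, 30° C; PBS quench.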

CCND1 = assay: In vitro transcription-translation (IVTT) assay, CCND1 reporter; conditions: HeLa S3 lysate, sfGFP/mCherry ratio
Summary of the method: as §1

KRAS G12D = assay: In vitro transcription-translation (IVTT) assay, KRAS G12D reporter; conditions: HeLa S3 lysate, sfGFP/mCherry ratio, 2 hrs at 30° C.
Summary of the method: as §1

ALK = assay: In vitro transcription-translation (IVTT) assay, ALK reporter; conditions: HeLa S3 lysate, sfGFP/mCherry ratio, 2 hrs at 30° C.
Summary of the method: as §1

MYC = assay: In vitro transcription-translation (IVTT) assay, MYC reporter; conditions: HeLa S3 lysate, 2 hrs at 30° C.
Summary of the method: as §1

CCNTB1 = assay: In vitro transcription-translation (IVTT) assay, CCNTB1 reporter; conditions: HeLa S3 lysate, sfGFP/mCherry ratio
Method: In vitro transcription-translation assay setup: Each assay includes a master mix containing lysate and shared components, a 96-well plate containing compound titrations for testing, a 96-well DNA plate with reporter constructs to be tested, 96-well skirted PCR plates, and 96-well flat-bottom, black, fluorescent assay plates. Reaction materials setup: (A) Master mix—15 mL conical tube (3 mL of HeLa S3 Lysate described above; 0.6 mL of ThermoFisher Accessory Proteins (#88882); 1.2 ml of ThermoFisher Reaction Mix (#88882); 0.54 mL of nuclease-free Water); (B) 96-Well Master Mix+Compound Plate (Half-log dilutions (30 μM−0.1 μM) of 4 compounds of interest are prepared in 100% DMSO); 96-Well DNA Plate (Five DNA constructs are plated into single columns within the plate. Row 1 of the column contains nuclease free H2O, all other wells contain 110 ng/μL plasmid DNA). Reactions are started by mixing 155 μL of master mix and 3.5 μL of compound serial dilutions, then 9.1 μL of master mix+compound mixture is aliquoted across 5 96-well plates. Reactions begin with final addition of 2 μL of DNA for a 11.1 μL reaction volume in each well. The entire plate is sealed, and incubated for 2 hrs at 30° C. After 2 hrs, quench the assay using 45 μL of PBS, and transfer 50 μL to a flat-bottom black microplate Quantify the sfGFP and mCherry signals from each well on each plate, taking 3 reads of each plate, and perform data analysis below.
In vitro transcription-translation assay data analysis: Each plate is read three times in channels for both sfGFP and mCherry signals. The average signal across these 3 reads is then calculated for further analysis. Control wells containing no DNA reporter are subtracted from reporter wells in the same column to remove auto-fluorescence of the lysate. Then, the ratio of sfGFP/mCherry is calculated per well, and these ratios are averaged across the triplicate experiments on the same plate. Finally, the ratio of each titration concentration is normalized to the no drug control to create the normalized stalling metric. The error on this measurement is determined by propagating error through the averaging and normalization steps. Values are plotted and fit for IC50 determination for each test sequence and titration of compound.

[1] = IVTT assay, read-out: MCL1 IC50
[2] = IVTT assay, MYC reporter, normalized sfGFP/mCherry ratio, half-log dilutions 30 μM-0.1 μM

Compound | IC50 (MCL-1; 2 hrs at 30° C.) | IC50 (CCND1; 2 hrs at 30° C.) | IC50 (KRAS G12D) | IC50 (ALK) | IC50 (MYC; sfGFP/mCherry ratio) | IC50 (MCL-1; [1]) | IC50 (CCND1; IVTT assay) | IC50 (MYC; [2]) | IC50 (CCNTB1)
COc1ccc(C[C@H]2NC[C@H](O)[C@H]2OC(=O)NCCCN)cc1 [V187591] | < 10 µM | < 10 µM | < 10 µM | < 10 µM | < 10 µM | – | – | – | –
O=C(NCc1cccc(F)c1)O[C@@H]1[C@@H](O)CN[C@@H]1Cc1ccc(-c2ccc(Cl)s2)cc1 [V192156, (2R,3S,4S)-2-{[4-(5-chlorothiophen-2-yl)phenyl]methyl}-4-hydroxypyrrolidin-3-yl N-[(3-fluorophenyl)methyl]carbamate] | – | – | – | – | – | > 30 µM | > 30 µM | > 30 µM | > 30 µM
O=C(NCC[C@@H]1CCCN1)O[C@@H]1[C@@H](O)CN[C@@H]1Cc1ccc(-c2ccc3c(c2)CC(F)(F)C3)cc1 [V191961, (2R,3S,4S)-2-{[4-(2,2-difluoro-1,3-dihydroinden-5-yl)phenyl]methyl}-4-hydroxypyrrolidin-3-yl N-{2-[(2S)-pyrrolidin-2-yl]ethyl}carbamate] | – | – | – | – | – | < 10 µM | 10 to 20 µM | 10 to 20 µM | < 10 µM
COc1ccc(C[C@H]2NC[C@H](O)[C@H]2OC(=O)NCc2cc(F)c(O)c(F)c2)cc1 [V191939, (2R,3S,4S)-4-hydroxy-2-[(4-methoxyphenyl)methyl]pyrrolidin-3-yl N-[(3,5-difluoro-4-hydroxyphenyl)methyl]carbamate] | – | – | – | – | – | < 10 µM | 10 to 20 µM | 10 to 20 µM | < 10 µM
COc1ccc(C[C@H]2NC[C@H](O)[C@H]2OC(=O)NCc2ccnc(N3CC(O)C3)c2)cc1 [V192067, (2R,3S,4S)-4-hydroxy-2-(4-methoxybenzyl)pyrrolidin-3-yl ((2-(3-hydroxyazetidin-1-yl)pyridin-4-yl)methyl)carbamate] | – | – | – | – | – | < 10 µM | < 10 µM | < 10 µM | 10 to 20 µM
COc1ccc(C[C@H]2NC[C@H](O)[C@H]2OC(=O)NCC[C@]2(C)CCCN2)cc1 [V191921, (2R,3S,4S)-4-hydroxy-2-[(4-methoxyphenyl)methyl]pyrrolidin-3-yl N-{2-[(2S)-2-methylpyrrolidin-2-yl]ethyl}carbamate] | – | – | – | – | – | < 10 µM | 10 to 20 µM | < 10 µM | < 10 µM
O=C(NCc1ccccc1)O[C@@H]1[C@@H](O)CN[C@@H]1Cn1cccn1 [V188209, (2R,3S,4S)-4-hydroxy-2-(pyrazol-1-ylmethyl)pyrrolidin-3-yl N-benzylcarbamate] | – | – | – | – | – | > 30 µM | > 30 µM | > 30 µM | > 30 µM
COc1ccc(C[C@H]2NC[C@H](O)[C@H]2OC(=O)NCc2ccnc(N3CCC3)n2)cc1 [V192073, (2R,3S,4S)-4-hydroxy-2-[(4-methoxyphenyl)methyl]pyrrolidin-3-yl N-{[2-(azetidin-1-yl)pyrimidin-4-yl]methyl}carbamate] | – | – | – | – | – | < 10 µM | < 10 µM | < 10 µM | < 10 µM
O=C(NCc1cccc(F)c1)O[C@@H]1[C@@H](O)CN[C@@H]1Cc1cccnc1 [V190519, (2R,3S,4S)-4-hydroxy-2-(pyridin-3-ylmethyl)pyrrolidin-3-yl N-[(3-fluorophenyl)methyl]carbamate] | – | – | – | – | – | > 30 µM | > 30 µM | 20 to 30 µM | 20 to 30 µM
COc1ccc(C[C@H]2NC[C@H](O)[C@H]2OC(=O)NCCCCCn2ccnc2)cc1 [V187636, (2R,3S,4S)-4-hydroxy-2-[(4-methoxyphenyl)methyl]pyrrolidin-3-yl N-[5-(imidazol-1-yl)pentyl]carbamate; trifluoroacetic acid] | < 10 µM | – | < 10 µM | < 10 µM | < 10 µM | – | – | – | –
O=C(NCC1CC1)O[C@@H]1[C@@H](O)CN[C@@H]1Cc1ccc(-c2cnco2)cc1 [V192262, (2R,3S,4S)-4-hydroxy-2-{[4-(1,3-oxazol-5-yl)phenyl]methyl}pyrrolidin-3-yl N-(cyclopropylmethyl)carbamate] | – | – | – | – | – | < 10 µM | < 10 µM | < 10 µM | < 10 µM
O=C(NCC[C@H]1CCCN1)O[C@@H]1[C@@H](O)CN[C@@H]1Cc1ccc(-c2ccccc2)cc1 [V192036, (2R,3S,4S)-2-{[1,1′-biphenyl]-4-ylmethyl}-4-hydroxypyrrolidin-3-yl N-{2-[(2R)-pyrrolidin-2-yl]ethyl}carbamate] | – | – | – | – | – | – | 10 to 20 µM | < 10 µM | < 10 µM
COc1ccc(C[C@H]2NC[C@H](O)[C@H]2OC(=O)NCCCCCO)cc1 [V187587, (2R,3S,4S)-4-hydroxy-2-[(4-methoxyphenyl)methyl]pyrrolidin-3-yl N-(5-hydroxypentyl)carbamate] | < 10 µM | < 10 µM | < 10 µM | < 10 µM | < 10 µM | – | – | – | –
COc1ccc(C[C@H]2NC[C@H](O)[C@H]2OC(=O)NCCc2ccon2)cc1 [V187700, (2R,3S,4S)-4-hydroxy-2-[(4-methoxyphenyl)methyl]pyrrolidin-3-yl N-[2-(1,2-oxazol-3-yl)ethyl]carbamate; trifluoroacetic acid] | < 10 µM | < 10 µM | < 10 µM | < 10 µM | < 10 µM | – | – | – | –
COc1ccc(C[C@H]2NC[C@H](O)[C@H]2OC(=O)NCC[C@@H]2CC(F)(F)CN2)cc1 [V190526, (2R,3S,4S)-4-hydroxy-2-[(4-methoxyphenyl)methyl]pyrrolidin-3-yl N-{2-[(2R)-4,4-difluoropyrrolidin-2-yl]ethyl}carbamate] | – | – | – | – | – | 10 to 20 µM | > 30 µM | 10 to 20 µM | < 10 µM
O=C(NCCC1CCNCC1)O[C@@H]1[C@@H](O)CN[C@@H]1Cc1ccc(-c2cncs2)cc1 [V192112, (2R,3S,4S)-4-hydroxy-2-{[4-(1,3-thiazol-5-yl)phenyl]methyl}pyrrolidin-3-yl N-[2-(piperidin-4-yl)ethyl]carbamate] | – | – | – | – | – | < 10 µM | < 10 µM | < 10 µM | < 10 µM
COc1ccc(C[C@H]2NC[C@H](O)[C@H]2OC(=O)NCc2cocn2)cc1 [V187767, (2R,3S,4S)-4-hydroxy-2-[(4-methoxyphenyl)methyl]pyrrolidin-3-yl N-(1,3-oxazol-4-ylmethyl)carbamate] | < 10 µM | < 10 µM | < 10 µM | < 10 µM | < 10 µM | – | – | – | –
O=C(NCC[C@H]1CCCN1)O[C@@H]1[C@@H](O)CN[C@@H]1Cc1ccc(-c2ccc(C(F)(F)F)cc2)cc1 [V192038, (2R,3S,4S)-4-hydroxy-2-{[4′-(trifluoromethyl)-[1,1′-biphenyl]-4-yl]methyl}-pyrrolidin-3-yl N-{2-[(2R)-pyrrolidin-2-yl]ethyl}carbamate; Trifluoroacetic Acid] | – | – | – | – | – | – | > 30 µM | > 30 µM | > 30 µM
O=C(NCC[C@H]1CCCN1)O[C@@H]1[C@@H](O)CN[C@@H]1Cc1ccc(-c2ccc(S(F)(F)(F)(F)F)cc2)cc1 [V192039, (2R,3S,4S)-4-hydroxy-2-{[4′-(pentafluoro-lambda6-sulfanyl)-[1,1′-biphenyl]-4-yl]methyl}pyrrolidin-3-yl N-{2-[(2R)-pyrrolidin-2-yl]ethyl}carbamate] | – | – | – | – | – | – | > 30 µM | > 30 µM | > 30 µM
COc1ccc(C[C@H]2NC[C@H](O)[C@H]2OC(=O)NCCC2(N)CC2)cc1 [V191989, (2R,3S,4S)-4-hydroxy-2-(4-methoxybenzyl)pyrrolidin-3-yl (2-(1-aminocyclopropyl)ethyl)carbamate] | – | – | – | – | – | – | < 10 µM | < 10 µM | < 10 µM
COc1ccc(C[C@H]2NC[C@H](O)[C@H]2OC(=O)NCCCCO)cc1 [V187586, (2R,3S,4S)-4-hydroxy-2-[(4-methoxyphenyl)methyl]pyrrolidin-3-yl N-(4-hydroxybutyl)carbamate] | < 10 µM | < 10 µM | < 10 µM | < 10 µM | – | – | – | – | –
O=C(NCC[C@H]1CCCN1)O[C@@H]1[C@@H](O)CN[C@@H]1Cc1ccc(-c2ccc(F)c(F)c2)cc1 [V192037, (2R,3S,4S)-2-({3′,4′-difluoro-[1,1′-biphenyl]-4-yl}methyl)-4-hydroxypyrrolidin-3-yl N-{2-[(2R)-pyrrolidin-2-yl]ethyl}carbamate] | – | – | – | – | – | – | – | 10 to 20 µM | < 10 µM
